Test [1] deals with T1, MAP kinase p38 (Homo sapiens) (UniProt O15264+Q15759+Q16539+P53778). Put plainly: Induction of p38 MAPK phosphorylation at T180/Y182 in human HL60 cells at 5 uM after 6 hrs by Western blot analysis. The note with it: HL-60. The class given is cell-based.
Test [2] deals with ACHN. Put plainly: Growth inhibition of human ACHN cells. The class given is functional.
The test system of test [3] is HL-60. Put plainly: Ratio of IC50 for human HL60 cells in presence of DFOM to IC50 for human HL60 cells in absence of DFOM. The class given is functional.
Test [4] concerns HL-60. Nature of the test: Induction of apoptosis in human HL60 cells assessed as DNA fragmentation after 24 hrs by Hoechst staining-based microscopic analysis preincubated with 20 uM p38 MAPK inhibitor SB203580. The class given is functional, cell-based.
The subject of test [5] is Saccharomyces cerevisiae. Nature of the test: Growth restoration activity in cdc2-1 rad9-deficient Saccharomyces cerevisiae assessed as growth zone incubated at 37 degC for 6 hrs and 28 degC for 2 days relative to mycophenolic acid. The class given is functional.
Test [6] relates to HL-60. Nature of the test: Induction of apoptosis in human HL60 cells assessed as DNA fragmentation after 24 hrs by Hoechst staining-based microscopic analysis in presence of 100 uM free radical scavenger vitamin E. The class given is functional, cell-based.
For test [7], the system named is DMS-114. Nature of the test: Growth inhibition of human DMS114 cells. The format is functional.
In test [8] the test system is Saccharomyces cerevisiae. Put plainly: Growth restoration activity in cdc2-1 rad9-deficient Saccharomyces cerevisiae assessed as growth zone at 0.5 ug/disc incubated at 37 degC for 6 hrs and 28 degC for 2 days. The format is functional.
Test [9] deals with HL-60. Nature of the test: Cytotoxicity against human HL60 cells after 48 hrs by MTT assay in absence of DFOM. To be noted: HL-60, 48 h. The class given is functional, cell-based.
Test [10] in a line: Growth inhibition of human HBC5 cells. The class given is functional.
The subject of test [11] is SNB-78. Nature of the test: Growth inhibition of human SNB78 cells. The class given is functional.
For test [12], the system named is SF-539. Put plainly: Growth inhibition of human SF539 cells. The format is functional.
Test [13] relates to MDA-MB-231. Nature of the test: Growth inhibition of human MDA-MB-231 cells. The format is functional.
For test [14], the system named is OVCAR-5. Put plainly: Growth inhibition of human OVCAR5 cells. The class given is functional.
Test [15] deals with MKN-7. Put plainly: Growth inhibition of human MKN7 cells. The class given is functional.
Test [16] concerns HL-60. Nature of the test: Induction of apoptosis in human HL60 cells assessed as DNA fragmentation after 24 hrs by Hoechst staining-based microscopic analysis preincubated with 5 uM JNK inhibitor SP600125. The class given is functional, cell-based.
The subject of test [17] is HL-60. Nature of the test: Induction of apoptosis in human HL60 cells assessed as condensed and fragmented nuclie at 10.6 uM after 18 hrs by Hoechst staining-based microscopic analysis relative to control. The class given is functional, cell-based.
Test [18] deals with T1, MAP kinase p38 (Homo sapiens). Put plainly: Induction of p38 MAPK phosphorylation at T180/Y182 in human HL60 cells at 10 uM after 3 hrs by Western blot analysis. The format is cell-based. The note with it: HL-60.
In test [19] the test system is SF-295. Nature of the test: Growth inhibition of human SF295 cells. The class given is functional.
Test [20] relates to NCI-H460. Nature of the test: Growth inhibition of human NCI-H460 cells. The class given is functional.

The source made the active and inactive calls. The calls are words filed in the database; no cut-off is given here.

Take `CC(C)=CCCC(C)C12C=CC(C)(CC1)OO2` (stereo not given): the outcome in test [1], in test [16], in test [17] and in [18] was Active. In addition, the GI50 is 1230 nM in [2]; 10700 nM in test [7]; 191 nM in test [10]; 1550 nM in [11]; 2570 nM in test [12]; 11700 nM in test [13]. Also, the GI50 in test [14] is 12000 nM; in test [15], 3630 nM; in test [19] it was 1660 nM; in [20] it was 832 nM. Further, in test [3], the “Ratio IC50” value turned out to be 10. For the same compound, the result in [4] and in test [6] was inactive. Besides, in test [5], the “fold change (FC)” value is recorded as 50. The Activity in test [8] is 0 mm. In test [9], this compound yielded an IC50 of 3700 nM.

The record behind these values is ChEMBL document CHEMBL2062379, “Cleavage mechanism and anti-tumor activity of 3,6-epidioxy-1,10-bisaboladiene isolated from edible wild plants” (Bioorg Med Chem, 2012).
